Reference: the kinase profiling compilation of Christmann-Franck et al. (2016)
“And” between values parts separate entries of the source, which are not always exact repeats. Identical values can stand only once.

What was measured:
Assay in all cases: radiometric filter-binding kinase assay, Kinase HotSpot
Details in all cases: compound 0.5 µM; ATP 10 µM
[1] = biological target: ABL1 (human) (UniProt P00519)
[2] = biological target: ACVR1 (human) (UniProt Q04771)
[3] = biological target: ADRBK1 (human) (UniProt P25098)
[4] = biological target: ADRBK2 (human) (UniProt P35626)
[5] = biological target: CAMK1G (human) (UniProt Q96NX5)
[6] = biological target: CDC42BPA (human) (UniProt Q5VT25)
[7] = biological target: CDC42BPB (human) (UniProt Q9Y5S2)
[8] = biological target: CHEK1 (human) (UniProt O14757)
[9] = biological target: DAPK2 (human) (UniProt Q9UIK4)
[10] = biological target: DSTYK (human) (UniProt Q6XUX3)
[11] = biological target: DYRK2 (human) (UniProt Q92630)
[12] = biological target: EPHA6 (human) (UniProt Q9UF33)
[13] = biological target: EPHB3 (human) (UniProt P54753)
[14] = biological target: EPHB4 (human) (UniProt P54760)
[15] = biological target: FGFR4 (human) (UniProt P22455)
[16] = biological target: IGF1R (human) (UniProt P08069)
[17] = biological target: IRAK4 (human) (UniProt Q9NWZ3)
[18] = biological target: LIMK1 (human) (UniProt P53667)
[19] = biological target: LYN (human) (UniProt P07948)
[20] = biological target: MAP3K9 (human) (UniProt P80192)
[21] = biological target: MET (human) (UniProt P08581)
[22] = biological target: NEK3 (human) (UniProt P51956)
[23] = biological target: NEK6 (human) (UniProt Q9HC98)
[24] = biological target: NEK9 (human) (UniProt Q8TD19)
[25] = biological target: NUAK2 (human) (UniProt Q9H093)
[26] = biological target: PDGFRA (human) (UniProt P16234)
[27] = biological target: PHKG1 (human) (UniProt Q16816)
[28] = biological target: PHKG2 (human) (UniProt P15735)
[29] = biological target: PRKCD (human) (UniProt Q05655)
[30] = biological target: PTK2 (human) (UniProt Q05397)
[31] = biological target: RAF1 (human) (UniProt P04049)
[32] = biological target: RPS6KA6 KD1 KD2 (human) (UniProt Q9UK32)
[33] = biological target: SRMS (human) (UniProt Q9H3Y6)
[34] = biological target: STK16 (human) (UniProt O75716)
[35] = biological target: STK25 (human) (UniProt O00506)
[36] = biological target: TEC (human) (UniProt P42680)
[37] = biological target: TGFBR1 (human) (UniProt P36897)
[38] = biological target: TLK2 (human) (UniProt Q86UE8)
[39] = biological target: TSSK2 (human) (UniProt Q96PF2)

Chain of TEC (human) (P42680 whole entry, looked up): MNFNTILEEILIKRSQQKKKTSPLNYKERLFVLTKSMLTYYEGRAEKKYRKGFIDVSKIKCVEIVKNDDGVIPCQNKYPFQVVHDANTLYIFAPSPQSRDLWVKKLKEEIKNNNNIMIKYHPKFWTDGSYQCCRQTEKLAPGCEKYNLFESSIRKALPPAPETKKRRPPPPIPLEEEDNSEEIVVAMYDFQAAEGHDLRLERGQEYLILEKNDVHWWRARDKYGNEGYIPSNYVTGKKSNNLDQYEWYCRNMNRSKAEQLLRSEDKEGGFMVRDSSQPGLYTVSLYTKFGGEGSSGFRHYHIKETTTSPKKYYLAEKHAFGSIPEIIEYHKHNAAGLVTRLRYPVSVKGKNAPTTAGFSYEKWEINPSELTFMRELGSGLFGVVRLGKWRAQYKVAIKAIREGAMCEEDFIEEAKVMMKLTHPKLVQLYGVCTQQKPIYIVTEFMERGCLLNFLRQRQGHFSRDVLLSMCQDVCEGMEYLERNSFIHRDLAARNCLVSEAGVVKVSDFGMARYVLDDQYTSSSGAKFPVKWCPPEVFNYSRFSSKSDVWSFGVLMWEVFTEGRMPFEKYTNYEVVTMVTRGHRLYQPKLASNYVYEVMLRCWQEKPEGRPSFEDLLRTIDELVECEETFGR
Chain of SRMS (human) (Q9H3Y6 whole entry, looked up): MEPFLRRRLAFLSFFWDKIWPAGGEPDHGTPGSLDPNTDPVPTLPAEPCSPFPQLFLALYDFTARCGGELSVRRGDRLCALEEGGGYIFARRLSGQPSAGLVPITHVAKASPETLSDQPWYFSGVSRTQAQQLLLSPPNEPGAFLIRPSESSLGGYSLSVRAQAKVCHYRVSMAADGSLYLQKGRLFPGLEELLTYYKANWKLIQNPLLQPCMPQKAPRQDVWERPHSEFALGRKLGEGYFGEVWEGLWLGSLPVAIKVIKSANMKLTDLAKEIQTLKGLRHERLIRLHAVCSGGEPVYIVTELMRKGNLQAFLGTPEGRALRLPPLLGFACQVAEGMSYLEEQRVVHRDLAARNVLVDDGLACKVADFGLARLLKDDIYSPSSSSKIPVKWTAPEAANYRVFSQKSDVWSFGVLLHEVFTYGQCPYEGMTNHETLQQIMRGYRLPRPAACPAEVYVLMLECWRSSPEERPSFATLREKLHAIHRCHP
Chain of MET (human) (P08581 whole entry, looked up): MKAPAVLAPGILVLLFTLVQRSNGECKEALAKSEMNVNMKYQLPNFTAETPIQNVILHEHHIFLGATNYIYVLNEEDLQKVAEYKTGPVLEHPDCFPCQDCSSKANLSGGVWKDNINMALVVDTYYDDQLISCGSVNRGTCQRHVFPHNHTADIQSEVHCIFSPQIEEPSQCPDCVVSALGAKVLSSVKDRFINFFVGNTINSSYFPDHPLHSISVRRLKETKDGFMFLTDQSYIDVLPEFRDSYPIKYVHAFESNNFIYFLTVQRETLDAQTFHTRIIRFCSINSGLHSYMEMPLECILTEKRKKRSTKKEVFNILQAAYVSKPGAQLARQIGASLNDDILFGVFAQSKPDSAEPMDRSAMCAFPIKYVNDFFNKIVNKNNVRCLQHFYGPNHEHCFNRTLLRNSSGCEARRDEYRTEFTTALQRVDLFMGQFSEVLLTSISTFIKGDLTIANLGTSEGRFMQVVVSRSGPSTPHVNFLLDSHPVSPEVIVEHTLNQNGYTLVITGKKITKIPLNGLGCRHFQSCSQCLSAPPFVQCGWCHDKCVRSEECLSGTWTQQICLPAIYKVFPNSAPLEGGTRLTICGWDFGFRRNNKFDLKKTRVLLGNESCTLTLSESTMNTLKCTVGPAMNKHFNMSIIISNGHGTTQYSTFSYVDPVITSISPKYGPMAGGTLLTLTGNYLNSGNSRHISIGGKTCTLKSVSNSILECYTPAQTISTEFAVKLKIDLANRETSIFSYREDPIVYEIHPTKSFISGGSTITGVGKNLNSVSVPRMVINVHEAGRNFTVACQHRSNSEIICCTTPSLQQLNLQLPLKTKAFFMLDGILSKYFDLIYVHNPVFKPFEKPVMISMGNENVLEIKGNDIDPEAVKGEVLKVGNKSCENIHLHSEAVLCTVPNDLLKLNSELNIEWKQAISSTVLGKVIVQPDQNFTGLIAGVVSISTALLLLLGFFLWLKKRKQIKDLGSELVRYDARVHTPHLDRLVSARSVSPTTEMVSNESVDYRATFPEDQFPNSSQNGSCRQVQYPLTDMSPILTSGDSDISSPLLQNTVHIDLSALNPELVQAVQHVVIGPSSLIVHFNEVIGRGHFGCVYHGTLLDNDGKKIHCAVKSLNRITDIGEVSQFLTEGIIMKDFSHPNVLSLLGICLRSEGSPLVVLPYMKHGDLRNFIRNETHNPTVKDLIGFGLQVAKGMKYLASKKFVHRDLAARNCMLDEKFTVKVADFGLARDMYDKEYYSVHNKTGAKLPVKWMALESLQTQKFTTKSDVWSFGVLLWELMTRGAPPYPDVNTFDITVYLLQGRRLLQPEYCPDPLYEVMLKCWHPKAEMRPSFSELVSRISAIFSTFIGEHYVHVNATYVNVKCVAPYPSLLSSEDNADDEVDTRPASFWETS
Chain of PDGFRA (human) (P16234 whole entry, looked up): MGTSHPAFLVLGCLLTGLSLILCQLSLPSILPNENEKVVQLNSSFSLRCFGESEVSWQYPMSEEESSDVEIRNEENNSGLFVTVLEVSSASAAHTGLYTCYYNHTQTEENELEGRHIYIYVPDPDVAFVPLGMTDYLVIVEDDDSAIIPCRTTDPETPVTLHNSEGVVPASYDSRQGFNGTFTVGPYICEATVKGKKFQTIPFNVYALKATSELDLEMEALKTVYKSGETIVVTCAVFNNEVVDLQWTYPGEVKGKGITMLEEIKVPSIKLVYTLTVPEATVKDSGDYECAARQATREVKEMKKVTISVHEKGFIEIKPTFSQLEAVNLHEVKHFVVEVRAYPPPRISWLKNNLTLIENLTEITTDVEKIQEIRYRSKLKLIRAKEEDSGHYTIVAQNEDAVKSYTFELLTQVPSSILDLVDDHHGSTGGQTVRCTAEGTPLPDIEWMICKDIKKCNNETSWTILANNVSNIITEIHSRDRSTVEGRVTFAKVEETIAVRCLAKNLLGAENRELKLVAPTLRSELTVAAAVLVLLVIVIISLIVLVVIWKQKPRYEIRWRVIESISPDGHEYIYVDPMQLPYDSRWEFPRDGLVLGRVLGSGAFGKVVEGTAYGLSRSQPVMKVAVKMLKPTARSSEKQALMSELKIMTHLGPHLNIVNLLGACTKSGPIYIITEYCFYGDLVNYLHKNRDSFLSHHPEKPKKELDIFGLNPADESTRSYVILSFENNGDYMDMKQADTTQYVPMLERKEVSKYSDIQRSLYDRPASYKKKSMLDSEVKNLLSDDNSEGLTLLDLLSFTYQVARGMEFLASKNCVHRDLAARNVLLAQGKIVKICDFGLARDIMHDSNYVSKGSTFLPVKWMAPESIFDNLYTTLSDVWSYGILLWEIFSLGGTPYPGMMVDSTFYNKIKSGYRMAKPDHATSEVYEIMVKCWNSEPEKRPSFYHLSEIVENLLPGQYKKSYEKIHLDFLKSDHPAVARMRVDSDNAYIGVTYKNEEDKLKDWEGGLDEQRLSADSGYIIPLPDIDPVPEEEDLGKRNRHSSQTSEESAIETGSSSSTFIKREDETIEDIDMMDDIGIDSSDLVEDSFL
Chain of IGF1R (human) (P08069 whole entry, looked up): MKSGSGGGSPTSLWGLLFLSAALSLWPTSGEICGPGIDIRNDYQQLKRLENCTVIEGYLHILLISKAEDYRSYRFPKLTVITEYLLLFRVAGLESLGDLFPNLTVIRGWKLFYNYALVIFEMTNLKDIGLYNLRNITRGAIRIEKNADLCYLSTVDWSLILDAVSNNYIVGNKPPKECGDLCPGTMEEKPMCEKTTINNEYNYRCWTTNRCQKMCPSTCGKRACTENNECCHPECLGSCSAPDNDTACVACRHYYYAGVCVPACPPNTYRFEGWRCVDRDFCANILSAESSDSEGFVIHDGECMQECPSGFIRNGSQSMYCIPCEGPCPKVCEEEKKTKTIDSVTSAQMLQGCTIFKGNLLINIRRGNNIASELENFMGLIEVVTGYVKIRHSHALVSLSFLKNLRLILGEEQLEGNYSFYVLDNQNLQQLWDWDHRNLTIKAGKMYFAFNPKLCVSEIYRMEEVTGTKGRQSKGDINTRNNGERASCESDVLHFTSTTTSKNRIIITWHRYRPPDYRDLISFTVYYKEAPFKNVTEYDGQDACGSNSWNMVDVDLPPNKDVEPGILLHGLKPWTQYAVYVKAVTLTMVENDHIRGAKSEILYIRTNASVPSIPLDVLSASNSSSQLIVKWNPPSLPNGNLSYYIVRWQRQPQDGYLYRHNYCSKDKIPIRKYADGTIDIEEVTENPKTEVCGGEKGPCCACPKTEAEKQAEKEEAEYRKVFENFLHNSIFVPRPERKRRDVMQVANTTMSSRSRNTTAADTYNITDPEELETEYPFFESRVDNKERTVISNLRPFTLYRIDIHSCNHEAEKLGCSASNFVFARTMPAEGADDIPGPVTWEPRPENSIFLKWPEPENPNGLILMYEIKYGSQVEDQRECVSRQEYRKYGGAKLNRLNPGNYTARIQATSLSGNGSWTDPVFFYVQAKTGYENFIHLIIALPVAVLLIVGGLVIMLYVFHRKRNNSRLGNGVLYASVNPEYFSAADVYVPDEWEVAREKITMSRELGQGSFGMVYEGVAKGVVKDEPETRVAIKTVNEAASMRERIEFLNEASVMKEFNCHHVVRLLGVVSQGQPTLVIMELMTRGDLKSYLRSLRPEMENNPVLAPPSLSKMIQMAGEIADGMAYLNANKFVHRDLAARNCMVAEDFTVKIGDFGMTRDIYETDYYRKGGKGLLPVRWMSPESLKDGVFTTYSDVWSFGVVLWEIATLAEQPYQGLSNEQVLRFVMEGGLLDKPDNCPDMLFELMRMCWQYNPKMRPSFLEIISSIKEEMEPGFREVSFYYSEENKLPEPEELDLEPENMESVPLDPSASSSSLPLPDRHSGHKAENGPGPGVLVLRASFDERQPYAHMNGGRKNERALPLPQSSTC

Compound | residual activity [1] [%] | residual activity [2] [%] | residual activity [3] [%] | residual activity [4] [%] | residual activity [5] [%] | residual activity [6] [%] | residual activity [7] [%] | residual activity [8] [%] | residual activity [9] [%] | residual activity [10] [%] | residual activity [11] [%] | residual activity [12] [%] | residual activity [13] [%] | residual activity [14] [%] | residual activity [15] [%] | residual activity [16] [%] | residual activity [17] [%] | residual activity [18] [%] | residual activity [19] | residual activity [20] [%] | further results
O=C1Nc2ccc(Cl)cc2/C1=C/c1cc(Cl)c(O)c(Cl)c1 | 84 | 130 | 93.4 | 102 | 96.6 | 96.1 | 91.4 | 86.4 | 135 | 89.6 | 94 | 72.8 | 91 | 100 | 98 | 98.3 | 101 | 83.7 | 81.6% and 87.5% | 102 | residual activity [21]: 96.4%; residual activity [22]: 94%; residual activity [23]: 104%; residual activity [24]: 103%; residual activity [25]: 78.7%; residual activity [26]: 70.3%; residual activity [27]: 86.4%; residual activity [28]: 98.4%; residual activity [29]: 86.7%; residual activity [30]: 91.5%; residual activity [31]: 6.93%; residual activity [32]: 78.5%; residual activity [33]: 86.3%; residual activity [34]: 90.2%; residual activity [35]: 94%; residual activity [36]: 109%; residual activity [37]: 102%; residual activity [38]: 105%; residual activity [39]: 94.4%
CNc1cc2c(Nc3cccc(Br)c3)ncnc2cn1 | 89.8 | 104 | 97 | 101 | 97.9 | 95.2 | 107 | 108 | 136 | 94.1 | 89.9 | 70 | 92.7 | 99.6 | 93.7 | 115 | 82.6 | 95.9 | 63.9% and 81.9% | 94.4 | residual activity [21]: 106%; residual activity [22]: 101%; residual activity [23]: 89.8%; residual activity [24]: 99.4%; residual activity [25]: 85%; residual activity [26]: 99%; residual activity [27]: 91.4%; residual activity [28]: 113%; residual activity [29]: 94.7%; residual activity [30]: 90.2%; residual activity [31]: 87.8%; residual activity [32]: 81.8%; residual activity [33]: 100%; residual activity [34]: 98.6%; residual activity [35]: 102%; residual activity [36]: 109%; residual activity [37]: 97.7%; residual activity [38]: 114%; residual activity [39]: 87.2%
Nc1ccc2ncnc(NCCc3ccc(Oc4ccccc4)cc3)c2c1 | 89.7 | 91.8 | 91.5 | 97.9 | 102 | 102 | 105 | 101 | 80.4 | 101 | 89.6 | 92.8 | 97.3 | 104 | 104 | 99.7 | 92.4 | 101 | 101% and 103% | 103 | residual activity [21]: 99.9%; residual activity [22]: 108%; residual activity [23]: 103%; residual activity [24]: 95.8%; residual activity [25]: 112%; residual activity [26]: 98.5%; residual activity [27]: 96.4%; residual activity [28]: 98.7%; residual activity [29]: 97.6%; residual activity [30]: 98.6%; residual activity [31]: 98.2%; residual activity [32]: 103%; residual activity [33]: 99.2%; residual activity [34]: 94.7%; residual activity [35]: 116%; residual activity [36]: 88.3%; residual activity [37]: 97.7%; residual activity [38]: 92.8%; residual activity [39]: 94.5%
